Our source for the IC50 values is patent publication US9718790B2, “Triazine derivative and pharmaceutical composition having an analgesic activity comprising the same” (SHIONOGI & CO., LTD., priority 2010, dated 2017).

Structures are written as SMILES. Where “and” joins values, the source holds several entries; their conditions need not be identical. Identical values can stand only once.

human P2X3 receptor, sequence (P56373 whole entry): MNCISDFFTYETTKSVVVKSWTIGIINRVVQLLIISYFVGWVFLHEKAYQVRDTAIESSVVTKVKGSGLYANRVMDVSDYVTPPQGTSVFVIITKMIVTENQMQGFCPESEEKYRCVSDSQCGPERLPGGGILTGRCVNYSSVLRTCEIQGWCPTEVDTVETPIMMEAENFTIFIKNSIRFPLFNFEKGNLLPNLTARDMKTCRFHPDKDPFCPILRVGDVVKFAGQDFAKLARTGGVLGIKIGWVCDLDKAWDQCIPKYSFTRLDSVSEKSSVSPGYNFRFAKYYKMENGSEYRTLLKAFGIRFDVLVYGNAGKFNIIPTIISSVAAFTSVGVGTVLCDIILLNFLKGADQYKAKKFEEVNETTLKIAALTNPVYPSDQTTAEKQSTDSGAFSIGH

The first test has as its target human P2X3 receptor (Homo sapiens (Human), UniProt P56373). Put plainly: Evaluation of human P2X3 receptor inhibitory activity (Fluo-3 calcium fluorescence, FDSS 3000, ATP stimulation).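 Further: stimulus was 50 nM ATP with fluorescence followed for 3 min, and the response per well was peak post-ATP fluorescence divided by the reading at measurement start.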 It counts as cell-based. The note with it: C6BU-1 cells stably expressing human P2X3 receptor.
As to `Cc1ccc(Oc2ccc(/N=c3\[nH]c(=O)n([C@@H](C)[C@@H](C)C(=O)O)c(=O)n3Cc3ccc(Cl)cc3)cc2)cn1` [Compound I-1388], the 50% inhibitory concentration (IC50) came out at 9 nM.
Still for that read-out and setting: to `COC(=O)[C@@H](C)Cn1c(=O)[nH]/c(=N\c2ccc(COC(C)C)cc2)n(Cc2ccc(Cl)cc2)c1=O` [Compound I-0656] belongs 100 nM; to `CCCn1c(=O)[nH]/c(=N\c2ccc(Oc3ccc(C(=O)OC)nc3)cc2)n(Cc2ccc(Cl)cc2)c1=O` [Compound I-2157], 1 nM.
On to `Cc1ccc(Cn2c(=O)n(C)c(=O)[nH]/c2=N\c2ccc(Oc3ccnc(CO)c3)cc2)cc1` [Compound I-2056], for which the IC50 was 26 nM.
The same measure, in the same setting: with `CCn1c(=O)[nH]/c(=N\c2ccc(Oc3ccc(C(=O)OC)o3)cc2)n(Cc2ccc(Cl)cc2)c1=O` [Compound I-2150] the figure was 44 nM.
The same measure, in the same setting: with `COC(=O)[C@@H](C)Cn1c(=O)[nH]/c(=N\c2ccc(CC(C)C)c(Cl)c2)n(Cc2ccc(C)cc2)c1=O` [Compound I-1371] the figure was 9 nM; with `Cc1cc(Oc2ccc(/N=c3\[nH]c(=O)n(CCCC(=O)O)c(=O)n3Cc3ccc(Cl)cc3)cc2)ccn1` [Compound I-1404], 24 nM.
In the case of `Cc1ccc(Cn2c(=O)n([C@H](C)[C@H](C)C(=O)O)c(=O)[nH]/c2=N\c2ccc(OC(C)C)c(Cl)c2)cc1` [Compound I-1337], the IC50 was determined as 14 nM.
Same read-out and setting: to `CCOc1ccc2cc(/N=c3\[nH]c(=O)n(CCC(=O)O)c(=O)n3Cc3ccc(C)cc3)ccc2c1` [Compound I-2130] belongs 790 nM; to `CC(C)Oc1ccc(/N=c2\[nH]c(=O)[nH]c(=O)n2Cc2ccc(Cl)cc2)cc1` [Compound I-1981], 354 nM.
The same measure, in the same setting: to `COC(=O)[C@@H](C)Cn1c(=O)[nH]/c(=N\c2cccc(C(F)(F)F)c2)n(Cc2ccc(Cl)cc2)c1=O` [Compound I-0622] belongs 30 nM; to `CC(C)Cc1ccc(/N=c2\[nH]c(=O)n([C@H](C)[C@H](C)C(=O)O)c(=O)n2Cc2ccc(Cl)cc2)cc1Cl` [Compound I-1445], 4 nM; to `C=Cc1cc(/N=c2\[nH]c(=O)n(C[C@H](C)C(=O)OC)c(=O)n2Cc2ccc(C)cc2)ccc1OCC` [Compound I-1191], 22 nM.
For `CNC(=O)CCn1c(=O)[nH]/c(=N\c2ccc(OC3CCC3)cc2)n(Cc2ccc(Cl)cc2)c1=O` [Compound I-1913], the IC50 is 19 nM.
In the case of `Cc1ccc(Cn2c(=O)n(C[C@H](C)C(=O)O)c(=O)[nH]/c2=N\c2ccc(NS(C)(=O)=O)cc2)cc1` [Compound I-1417], the IC50 amounted to 207 nM.
The same measure, in the same setting: with `CC(C)Oc1ccc(/N=c2\[nH]c(=O)n(CC(=O)NCC3CCOCC3)c(=O)n2Cc2ccc(Cl)cc2)cc1Cl` [Compound I-0664] the figure was 6 nM; with `CCn1c(=O)[nH]/c(=N\c2ccc(Oc3ccnc(C(=O)NC)c3)cc2)n(Cc2ccc(C)cc2)c1=O` [Compound I-2013], 3 nM; with `COC(=O)[C@@H](C)Cn1c(=O)[nH]/c(=N\c2ccc(Oc3ccnc(O)c3)cc2)n(Cc2ccc(C)cc2)c1=O` [Compound I-1432], 2 nM.
Still for that read-out and setting: with `Cc1cc(/N=c2\[nH]c(=O)n([C@H]3C[C@@H](C(=O)O)N(C(=O)OC(C)(C)C)C3)c(=O)n2Cc2ccc(Cl)cc2)ccc1OC(C)C` [Compound I-0708] the figure was 966 nM.
On the same count and under the same terms, with `COc1ccc(/N=c2\[nH]c(=O)n(C[C@H](C)C(=O)O)c(=O)n2Cc2ccc(Cl)cc2)cc1Cl` [Compound I-0724] the figure was 250 nM; with `COc1cc(/N=c2\[nH]c(=O)n(C[C@H](C)C(=O)O)c(=O)n2Cc2ccc(C)cc2)ccc1CC(C)C` [Compound I-1261], 18 nM.

Still in this test, the particulars now being: C6BU-1 cells stably expressing human P2X3 receptor, Fluo-3 fluorescence, FDSS 3000.
`COc1ccc(Oc2ccc(/N=c3\[nH]c(=O)n(CC(CO)CO)c(=O)n3Cc3ccc(Cl)cc3)cc2)cn1` [Compound I-1843]: the IC50 is 4 nM.
As to `Cc1ccc(Cn2c(=O)n(C[C@H](C)C(=O)O)c(=O)[nH]/c2=N\c2ccc(C3=CCCCC3)cc2)cc1` [Compound I-1111], the IC50 is 161 nM.
The same measure, in the same setting: with `Cc1ccc(Cn2c(=O)n(C[C@H](C)C(=O)O)c(=O)[nH]/c2=N\c2ccc(Cl)c(Cl)c2)cc1` [Compound I-1004] the figure was 85 nM.
On the same count and under the same terms, to `CCc1oc2ccc(/N=c3\[nH]c(=O)n(CC4(C(=O)O)CC4)c(=O)n3Cc3ccc(C)cc3)cc2c1C` [Compound I-1555] belongs 16 nM; to `COC(=O)[C@@H](C)Cn1c(=O)[nH]/c(=N\c2cccc(C3CCCCC3)c2)n(Cc2ccc(C)cc2)c1=O` [Compound I-1088], 548 nM.
For `CC(C)Cn1c(=O)oc2cc(Nc3nc(=O)n(C(C)C)c(=O)n3Cc3ccc(Cl)cc3)ccc21` [Compound I-0268], the IC50 was 861 nM.
The same measure, in the same setting: to `Cc1cc(/N=c2\[nH]c(=O)n(C[C@H](C)C(=O)O)c(=O)n2Cc2ccc(Cl)cc2)ccc1CC(C)C` [Compound I-0949] belongs 8 nM and 21 nM.
Same read-out and setting: to `Cc1ccc(Cn2c(=O)n(C[C@H](C)C(=O)O)c(=O)[nH]/c2=N\c2cccc(C3CCCCC3)c2)cc1` [Compound I-1109] belongs 430 nM.
Still for that read-out and setting: with `CCc1cc(/N=c2\[nH]c(=O)n(C[C@H](C)C(=O)O)c(=O)n2Cc2ccc(C)cc2)ccc1OC(C)C` [Compound I-0911, (S)-1-(4-methylbenzyl)-6-(3-ethyl-4-isopropoxyphenylimino)-3-(2-hydroxycarbonylpropyl)-1,3,5-triazinane-2,4-dion] the figure was 15 nM; with `C[C@@H](C(=O)O)[C@H](C)n1c(=O)[nH]/c(=N\c2ccc3nc(C(F)(F)F)[nH]c3c2)n(Cc2ccc(Cl)cc2)c1=O` [Compound I-1794], 380 nM; with `Cc1[nH]c2ccc(/N=c3\[nH]c(=O)n([C@@H](C)[C@@H](C)C(=O)O)c(=O)n3Cc3ccc(Cl)cc3)cc2c1C` [Compound I-1771], 14 nM.
In the case of `CCOC(=O)CCn1c(=O)[nH]/c(=N\c2ccc(OC(C)C)c(C)c2)n(Cc2ccc(Cl)cc2)c1=O` [Compound I-1155], the 50% inhibitory concentration (IC50) worked out at 9 nM.
With `COC(=O)CCn1c(=O)[nH]/c(=N\c2cc(-c3ccncc3)c[nH]c2=O)n(Cc2ccc(C)cc2)c1=O` [Compound I-1893], the 50% inhibitory concentration (IC50) worked out at 178 nM.

The same test, now with this note: human P2X3 receptor, Test Example 1.
Consider `CCn1c(=O)[nH]/c(=N\c2ccc(Oc3cccc(C#N)n3)cc2)n(Cc2ccc(Cl)cc2)c1=O` [Compound I-2302], for which the IC50 was determined as 2 nM.
On the same count and under the same terms, with `CCOC(=O)Cn1c(=O)[nH]/c(=N\c2ccc(Oc3cnsn3)cc2)n(Cc2ccc(Cl)cc2)c1=O` [Compound I-2629] the figure was 6 nM.
On the same count and under the same terms, with `O=c1[nH]/c(=N\c2ccc(Oc3ccon3)c(F)c2)n(Cc2ccc(Cl)cc2)c(=O)n1C(CO)CO` [Compound I-2529] the figure was 73 nM; with `Cc1ccc(Cn2c(=O)n(C[C@H](C)C(=O)O)c(=O)[nH]/c2=N\c2ccc(OCC(C)C)cc2)cc1` [Compound I-0827], 26 nM.
Still for that read-out and setting: with `COC(=O)c1cncc(Oc2ccc(/N=c3\[nH]c(=O)n(C)c(=O)n3Cc3ccc(C)cc3)cc2)n1` [Compound I-2468] the figure was 20 nM; with `COC(=O)[C@H](C)n1c(=O)[nH]/c(=N\c2ccc(Oc3ccon3)cc2)n(Cc2ccc(Cl)cc2)c1=O` [Compound I-2459], 7 nM; with `Cc1ccc(Cn2c(=O)n(C[C@H](C)C(=O)O)c(=O)[nH]/c2=N\c2ccc(CC3CC3)c(Cl)c2)cc1` [Compound I-1513], 10 nM.
`CCn1c(=O)[nH]/c(=N\c2ccc(Oc3ccncc3)cc2)n(Cc2ccc(C)cc2)c1=O` [Compound I-2573]: the 50% inhibitory concentration (IC50) was 6 nM.
For the molecule `Cn1c(=O)[nH]/c(=N\c2ccc(Oc3cccc(C(=O)O)n3)c(F)c2)n(Cc2ccc(Cl)cc2)c1=O` [Compound I-2502], the IC50 was 7 nM.
Still for that read-out and setting: to `CCn1c(=O)[nH]/c(=N\c2ccc(Oc3nc(C(=O)O)c(C)s3)cc2)n(Cc2ccc(Cl)cc2)c1=O` [Compound I-2450] belongs 8 nM; to `O=C(O)CCn1c(=O)[nH]/c(=N\c2ccc(Oc3ccon3)cc2)n(Cc2ccc(Cl)cc2)c1=O` [Compound I-2435], 37 nM.
As to `CCOC(=O)CCn1c(=O)[nH]/c(=N\c2ccc3nc(CC)sc3c2)n(Cc2ccc(Cl)cc2)c1=O` [Compound I-1505], the IC50 was 4 nM.
Same read-out and setting: to `Cc1ccc(Cn2c(=O)n(C)c(=O)[nH]/c2=N\c2ccc(Oc3cccc(C(=O)O)n3)cc2)cc1` [Compound I-2268] belongs 6 nM; to `Cn1c(=O)[nH]/c(=N\c2ccc(Oc3cccc(C(=O)O)n3)cc2)n(C[C@H]2CC[C@H](C)CC2)c1=O` [Compound I-2465], 4 nM.
On the same count and under the same terms, with `CCc1oc2ccc(/N=c3\[nH]c(=O)n(CCC(=O)O)c(=O)n3Cc3ccc(C)cc3)cc2c1C` [Compound I-1508] the figure was 18 nM; with `CCOC(=O)C1(Cn2c(=O)[nH]/c(=N\c3ccc4nc(CC)sc4c3)n(Cc3ccc(C)cc3)c2=O)CC1` [Compound I-1547], 3 nM.
Still for that read-out and setting: with `COC(=O)[C@H](C)Cn1c(=O)[nH]/c(=N\c2ccc(N3CCCCC3)cc2)n(Cc2ccc(Cl)cc2)c1=O` [Compound I-1484] the figure was 6 nM.
For `NC(=O)CCn1c(=O)[nH]/c(=N\c2ccc(Oc3ccon3)cc2)n(Cc2ccc(Cl)cc2)c1=O` [Compound I-2443], the 50% inhibitory concentration (IC50) was 24 nM.
Still for that read-out and setting: to `O=C(O)Cn1c(=O)[nH]/c(=N\c2ccc(Oc3ccnnc3)cc2)n(Cc2ccc(Cl)cc2)c1=O` [Compound I-2665] belongs 85 nM; to `CCOC(=O)C1(Cn2c(=O)[nH]/c(=N\c3ccc4nc(CC)sc4c3)n(Cc3ccc(Cl)cc3)c2=O)CC1` [Compound I-1539], 4 nM.
Turning to `Cc1nsc(Oc2ccc(/N=c3\[nH]c(=O)n(CC(CO)CO)c(=O)n3Cc3ccc(Cl)cc3)cc2)n1` [Compound I-2520], the 50% inhibitory concentration (IC50) was 2 nM.
The same measure, in the same setting: with `COC(=O)c1cncc(Oc2ccc(/N=c3\[nH]c(=O)n(C4COC4)c(=O)n3Cc3ccc(Cl)cc3)cc2)c1` [Compound I-2332] the figure was 218 nM.
Same read-out and setting: to `NC(=O)c1ccc(Oc2ccc(/N=c3\[nH]c(=O)n(C[C@H](O)CO)c(=O)n3Cc3ccc(Cl)cc3)cc2)cc1` [Compound I-2546] belongs 6 nM.
The same measure, in the same setting: with `O=c1[nH]/c(=N\c2ccc(Oc3noc(C4CC4)n3)cc2)n(Cc2ccc(Cl)cc2)c(=O)n1C[C@H](O)CO` [Compound I-2596] the figure was 51 nM; with `CCc1cc2cc(/N=c3\[nH]c(=O)n(CCCO)c(=O)n3Cc3ccc(Cl)cc3)ccc2o1` [Compound I-2336], 10 nM.

The term IC50 denotes the midpoint of a concentration-inhibition curve.
